Laboratory results taken from the supplement of paper PMC10307832.

What was measured:
Experiment in all cases: relative viability (nuclei count vs DMSO), 5 days (fraction); higher = more cells survive
[1] = compound: Cc1nc(NC(=O)N2CCC[C@H]2C(N)=O)sc1-c1ccnc(C(C)(C)C(F)(F)F)c1 [Alpelisib]
Procedure, shortened: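 Vehicle-anchored 1536-well plates of lung cancer cell lines, held overnight at 37 °C, were pinned with five library-drug doses (not always all listed) spaced by √10. No medium change followed over the next 5 days, after which the cells were fixed, permeabilised and Hoechst-stained together and imaged at 4×. Nuclei were counted with MetaXpress, and viability is treated-well nuclei over vehicle-well nuclei, taken as a median across plates. Plates passed with control CV below 25% and at least one doubling.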

[2] = compound: COc1cccc2cc(-c3nc([C@H]4CC[C@H](C(=O)O)CC4)n4ncnc(N)c34)[nH]c12 [OSI-027] + CC(C)C[C@H](NC(=O)[C@H](Cc1ccccc1)NC(=O)c1cnccn1)B(O)O [Bortezomib] (partner 0.002 µM)
Procedure, shortened: (§1)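 Relative viability divides the nuclei count in treated wells by that in vehicle wells. Lung cancer cell lines were seeded in 1536-well plates, dosed by pin tool the next day, and fixed and stained after 5 days in one step with final 0.05% Triton X-100, 1% formaldehyde and 1 ug/ml Hoechst. Dosing was a single drug or a fixed anchor-drug dose plus five library-drug doses (not always all listed) in √10 steps, and values are medians of duplicate plates imaged at 4×.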

[3] = compound: COc1cccc2cc(-c3nc([C@H]4CC[C@H](C(=O)O)CC4)n4ncnc(N)c34)[nH]c12 [OSI-027] + C[C@]1(O)C[C@@H](c2nc(-c3ccc4ccc(-c5ccccc5)nc4c3)c3c(N)nccn32)C1 [Linsitinib] (partner 1 µM)
Procedure, shortened: as §1

NCI-H441
relative viability ([1]; 0.04 µM): 1.1 | relative viability ([1]; 0.1265 µM): 0.95 | relative viability ([1]; 0.4 µM): 1.01 | relative viability ([1]; 1.265 µM): 0.605 | relative viability ([1]; 2 µM, anchor plate): 0.766 | relative viability ([1]; 4 µM): 0.662 | relative viability ([2]; first compound 0.01 µM): 0.605 | relative viability ([2]; first compound 0.03162 µM): 0.254 | relative viability ([2]; first compound 0.1 µM): 0.476 | relative viability ([2]; first compound 0.3162 µM): 0.381 | relative viability ([2]; first compound 1 µM): 0.28 | relative viability ([3]; first compound 0.01 µM): 0.643 | relative viability ([3]; first compound 0.03162 µM): 0.452 | relative viability ([3]; first compound 0.1 µM): 0.399 | relative viability ([3]; first compound 0.3162 µM): 0.387 | relative viability ([3]; first compound 1 µM): 0.206

NCI-H1793
relative viability ([1]; 0.04 µM): 0.851 | relative viability ([1]; 0.1265 µM): 0.89 | relative viability ([1]; 0.4 µM): 0.919 | relative viability ([1]; 1.265 µM): 0.731 | relative viability ([1]; 2 µM, anchor plate): 0.792 | relative viability ([1]; 4 µM): 0.626 | relative viability ([3]; first compound 0.01 µM): 1.04 | relative viability ([3]; first compound 0.03162 µM): 0.875 | relative viability ([3]; first compound 0.1 µM): 0.612 | relative viability ([3]; first compound 0.3162 µM): 0.225 | relative viability ([3]; first compound 1 µM): 0.188

201T
relative viability ([1]; 0.04 µM): 0.985 | relative viability ([1]; 0.1265 µM): 0.974 | relative viability ([1]; 0.4 µM): 0.994 | relative viability ([1]; 1.265 µM): 0.873 | relative viability ([1]; 2 µM, anchor plate): 1.01 | relative viability ([1]; 4 µM): 0.816 | relative viability ([2]; first compound 0.01 µM): 1.14 | relative viability ([2]; first compound 0.03162 µM): 1.15 | relative viability ([2]; first compound 0.1 µM): 1.07 | relative viability ([2]; first compound 0.3162 µM): 1.12 | relative viability ([2]; first compound 1 µM): 1.1 | relative viability ([3]; first compound 0.01 µM): 0.932 | relative viability ([3]; first compound 0.03162 µM): 0.974 | relative viability ([3]; first compound 0.1 µM): 1.01 | relative viability ([3]; first compound 0.3162 µM): 0.833 | relative viability ([3]; first compound 1 µM): 0.936

NCI-H460
relative viability ([1]; 0.04 µM): 0.989 | relative viability ([1]; 0.1265 µM): 1.02 | relative viability ([1]; 0.4 µM): 1.05 | relative viability ([1]; 1.265 µM): 0.949 | relative viability ([1]; 2 µM, anchor plate): 0.536 | relative viability ([1]; 4 µM): 0.757 | relative viability ([2]; first compound 0.01 µM): 1.41 | relative viability ([2]; first compound 0.03162 µM): 1.14 | relative viability ([2]; first compound 0.1 µM): 0.862 | relative viability ([2]; first compound 0.3162 µM): 0.94 | relative viability ([2]; first compound 1 µM): 0.139 | relative viability ([3]; first compound 0.01 µM): 0.95 | relative viability ([3]; first compound 0.03162 µM): 0.34 | relative viability ([3]; first compound 0.1 µM): 0.627 | relative viability ([3]; first compound 0.3162 µM): 0.186 | relative viability ([3]; first compound 1 µM): 0.105

NCI-H1666
relative viability ([1]; 0.04 µM): 0.997 | relative viability ([1]; 0.1265 µM): 0.98 | relative viability ([1]; 0.4 µM): 1.13 | relative viability ([1]; 1.265 µM): 0.84 | relative viability ([1]; 2 µM, anchor plate): 0.977 | relative viability ([1]; 4 µM): 0.8 | relative viability ([2]; first compound 0.01 µM): 0.707 | relative viability ([2]; first compound 0.03162 µM): 0.9 | relative viability ([2]; first compound 0.1 µM): 0.688 | relative viability ([2]; first compound 0.3162 µM): 0.425 | relative viability ([2]; first compound 1 µM): 0.372 | relative viability ([3]; first compound 0.01 µM): 0.775 | relative viability ([3]; first compound 0.03162 µM): 0.536 | relative viability ([3]; first compound 0.1 µM): 0.459 | relative viability ([3]; first compound 0.3162 µM): 0.337 | relative viability ([3]; first compound 1 µM): 0.39

HOP-62
relative viability ([1]; 0.04 µM): 1.04 | relative viability ([1]; 0.1265 µM): 1.06 | relative viability ([1]; 0.4 µM): 1.1 | relative viability ([1]; 1.265 µM): 0.863 | relative viability ([1]; 2 µM, anchor plate): 0.974 | relative viability ([1]; 4 µM): 0.955 | relative viability ([2]; first compound 0.01 µM): 0.679 | relative viability ([2]; first compound 0.03162 µM): 0.726 | relative viability ([2]; first compound 0.1 µM): 0.377 | relative viability ([2]; first compound 0.3162 µM): 0.65 | relative viability ([2]; first compound 1 µM): 0.609 | relative viability ([3]; first compound 0.01 µM): 0.952 | relative viability ([3]; first compound 0.03162 µM): 1.2 | relative viability ([3]; first compound 0.1 µM): 1.04 | relative viability ([3]; first compound 0.3162 µM): 0.712 | relative viability ([3]; first compound 1 µM): 0.359

SW 1573
relative viability ([1]; 0.04 µM): 0.98 | relative viability ([1]; 0.1265 µM): 0.916 | relative viability ([1]; 0.4 µM): 0.94 | relative viability ([1]; 1.265 µM): 0.704 | relative viability ([1]; 2 µM, anchor plate): 0.733 | relative viability ([1]; 4 µM): 0.649 | relative viability ([2]; first compound 0.01 µM): 1.18 | relative viability ([2]; first compound 0.03162 µM): 0.897 | relative viability ([2]; first compound 0.1 µM): 0.831 | relative viability ([2]; first compound 0.3162 µM): 0.776 | relative viability ([2]; first compound 1 µM): 0.732 | relative viability ([3]; first compound 0.01 µM): 0.777 | relative viability ([3]; first compound 0.03162 µM): 0.712 | relative viability ([3]; first compound 0.1 µM): 0.771 | relative viability ([3]; first compound 0.3162 µM): 0.586 | relative viability ([3]; first compound 1 µM): 0.462

NCI-H2085
relative viability ([1]; 0.04 µM): 0.988 | relative viability ([1]; 0.1265 µM): 0.943 | relative viability ([1]; 0.4 µM): 1.01 | relative viability ([1]; 1.265 µM): 0.93 | relative viability ([1]; 2 µM, anchor plate): 0.984 | relative viability ([1]; 4 µM): 0.889 | relative viability ([2]; first compound 0.01 µM): 1.11 | relative viability ([2]; first compound 0.03162 µM): 0.965 | relative viability ([2]; first compound 0.1 µM): 0.95 | relative viability ([2]; first compound 0.3162 µM): 0.977 | relative viability ([2]; first compound 1 µM): 0.853 | relative viability ([3]; first compound 0.01 µM): 0.884 | relative viability ([3]; first compound 0.03162 µM): 0.847 | relative viability ([3]; first compound 0.1 µM): 0.82 | relative viability ([3]; first compound 0.3162 µM): 0.753 | relative viability ([3]; first compound 1 µM): 0.422

ABC-1
relative viability ([1]; 0.04 µM): 1.13 | relative viability ([1]; 0.1265 µM): 0.77 | relative viability ([1]; 0.4 µM): 0.886 | relative viability ([1]; 1.265 µM): 0.662 | relative viability ([1]; 2 µM, anchor plate): 1.05 | relative viability ([1]; 4 µM): 0.608 | relative viability ([2]; first compound 0.01 µM): 0.284 | relative viability ([2]; first compound 0.03162 µM): 0.366 | relative viability ([2]; first compound 0.1 µM): 0.331 | relative viability ([2]; first compound 0.3162 µM): 0.405 | relative viability ([2]; first compound 1 µM): 0.27 | relative viability ([3]; first compound 0.01 µM): 0.768 | relative viability ([3]; first compound 0.03162 µM): 0.749 | relative viability ([3]; first compound 0.1 µM): 0.58 | relative viability ([3]; first compound 0.3162 µM): 0.32 | relative viability ([3]; first compound 1 µM): 0.316

NCI-H1299
relative viability ([1]; 0.04 µM): 1.03 | relative viability ([1]; 0.1265 µM): 1.04 | relative viability ([1]; 0.4 µM): 1.07 | relative viability ([1]; 1.265 µM): 0.988 | relative viability ([1]; 2 µM, anchor plate): 1.04 | relative viability ([1]; 4 µM): 0.945 | relative viability ([2]; first compound 0.01 µM): 1.09 | relative viability ([2]; first compound 0.03162 µM): 1.03 | relative viability ([2]; first compound 0.1 µM): 1.06 | relative viability ([2]; first compound 0.3162 µM): 1.08 | relative viability ([2]; first compound 1 µM): 1.1 | relative viability ([3]; first compound 0.01 µM): 0.969 | relative viability ([3]; first compound 0.03162 µM): 0.94 | relative viability ([3]; first compound 0.1 µM): 0.889 | relative viability ([3]; first compound 0.3162 µM): 0.773 | relative viability ([3]; first compound 1 µM): 0.635
